Source: the PolyMetriX glass transition set

## *C#Cc1ccccc1C#C[SiH](*)c1ccccc1 (repeat unit)
  glass transition temperature: 71.00 °C

## *C(=O)Nc1c(C)cc(Cc2cc(C)c(NC(=O)c3ccc4c(c3)C(=O)N(c3ccc(/N=N/c5ccc(OC(F)(F)F)cc5)c(N5C(=O)c6ccc(*)cc6C5=O)c3)C4=O)c(C)c2)cc1C (repeat unit)
  glass transition temperature: 278.00 °C

## *C(=O)Nc1ccc(/N=N/c2ccc([N+](=O)[O-])cc2)c(NC(=O)c2ccc3c(c2)C(=O)N(c2c(C)cc(Cc4cc(C)c(N5C(=O)c6ccc(*)cc6C5=O)c(C)c4)cc2C)C3=O)c1 (repeat unit)
  glass transition temperature: 264.00 °C

## *CCCCCCNC(=O)Cc1ccc(CC(=O)N*)cc1 (repeat unit)
  glass transition temperature: 95.00 °C

## *CCCCCCOC(=O)C(CCCCP(=O)(OCC)OCC)C(=O)OCCCCCCOc1ccc(-n2on2-c2ccc(O*)cc2)cc1 (repeat unit)
  glass transition temperature: 4.00 °C

## *CCCCCCOC(=O)c1cc(OCCCCCCOc2ccc(/N=N/c3ccc(C#N)cc3)cc2)cc(C(=O)OCCCCCCN2C(=O)c3ccc(-c4ccc5c(c4)C(=O)N(*)C5=O)cc3C2=O)c1 (repeat unit)
  glass transition temperature: 93.00 °C

## *CCCCCCOC(=O)c1cc(OCCCCCCOc2ccc(/N=N/c3ccc(C#N)cc3)cc2)cc(C(=O)OCCCCCCN2C(=O)c3ccc(Oc4ccc5c(c4)C(=O)N(*)C5=O)cc3C2=O)c1 (repeat unit)
  glass transition temperature: 61.00 °C

## *CCCCCNC(=O)Cc1ccc(C(=O)N*)cc1 (repeat unit)
  glass transition temperature: 103.00 °C

## *CCCCNC(=O)Cc1ccc(C(=O)N*)cc1 (repeat unit)
  glass transition temperature: 84.00 °C

## *CCN(CCOC(=O)c1cc(OCCN(C)c2ccc(S(=O)(=O)C(F)(F)C(F)(F)C(F)(F)C(F)(F)C(F)(F)C(F)(F)C(F)(F)C(F)(F)F)cc2)cc(C(=O)O*)c1)c1ccc(S(=O)(=O)C(F)(F)C(F)(F)C(F)(F)C(F)(F)C(F)(F)C(F)(F)C(F)(F)C(F)(F)F)cc1 (repeat unit)
  glass transition temperature: 83.00 °C

## *CCN(CCOC(=O)c1cc(OCc2c(F)c(F)c(OC)c(F)c2F)cc(C(=O)O*)c1)c1ccc(/C=C/c2ccc(/C=C/C3=C(C#N)C(=C(C#N)C#N)OC3(c3ccccc3)C(F)(F)F)s2)cc1 (repeat unit)
  glass transition temperature: 140.00 °C

## *CCN(CCOC(=O)c1ccc(C(=O)O*)c(OCCC)c1)c1ccc(-c2nc3ccc([N+](=O)[O-])cc3o2)cc1 (repeat unit)
  glass transition temperature: 119.00 °C

## *Cc1cc(C23CC4CC(CC(C4)C2)C3)cc(CN(*)C)c1O (repeat unit)
  glass transition temperature: 188.80 °C

## *Cc1cc2cc(C(=O)Nc3ccc(-c4ccc(NC(=O)c5cc6cc(*)c(OC(=O)COc7ccc8ccc(=O)oc8c7)cc6oc5=O)cc4)cc3)c(=O)oc2cc1OC(=O)COc1ccc2ccc(=O)oc2c1 (repeat unit)
  glass transition temperature: 248.00 °C

## *Cc1cc2cc(C(=O)Nc3ccc(Cc4ccc(NC(=O)c5cc6cc(*)c(OC(=O)COc7ccc8ccc(=O)oc8c7)cc6oc5=O)cc4)cc3)c(=O)oc2cc1OC(=O)COc1ccc2ccc(=O)oc2c1 (repeat unit)
  glass transition temperature: 221.00 °C

## *Cc1cc2cc(C(=O)Nc3cccc(NC(=O)c4cc5cc(*)c(OC(=O)COc6ccc7ccc(=O)oc7c6)cc5oc4=O)c3)c(=O)oc2cc1OC(=O)COc1ccc2ccc(=O)oc2c1 (repeat unit)
  glass transition temperature: 240.00 °C

## *Cc1ccc(C[n+]2ccc(-c3cc[n+](*)cc3)cc2)cc1 (repeat unit)
  glass transition temperature: 95.00 °C

## *Cc1ccccc1C[n+]1ccc(-c2cc[n+](*)cc2)cc1 (repeat unit)
  glass transition temperature: 70.50 °C

## *Oc1ccc(CC(NC(=O)CCc2ccc(OC(=O)CCC(*)=O)cc2)C(=O)OC)cc1 (repeat unit)
  glass transition temperature: 91.50 °C

## *Oc1ccc(CC(NC(=O)CCc2ccc(OC(=O)CCC(*)=O)cc2)C(=O)OCC(C)C)cc1 (repeat unit)
  glass transition temperature: 75.00 °C

## *Oc1ccc(CC(NC(=O)CCc2ccc(OC(=O)CCC(*)=O)cc2)C(=O)OCCCC)cc1 (repeat unit)
  glass transition temperature: 67.00 °C

## *Oc1ccc(CC(NC(=O)CCc2ccc(OC(=O)CCC(*)=O)cc2)C(=O)OCCCCCC)cc1 (repeat unit)
  glass transition temperature: 53.00 °C

## *Oc1ccc(CC(NC(=O)CCc2ccc(OC(=O)CCC(*)=O)cc2)C(=O)OCCOCCOCC)cc1 (repeat unit)
  glass transition temperature: 34.00 °C

## *Oc1ccc(CC(NC(=O)CCc2ccc(OC(=O)CCCC(*)=O)cc2)C(=O)OC(C)CC)cc1 (repeat unit)
  glass transition temperature: 52.00 °C

## *Oc1ccc(CC(NC(=O)CCc2ccc(OC(=O)CCCC(*)=O)cc2)C(=O)OCC)cc1 (repeat unit)
  glass transition temperature: 70.00 °C

## *Oc1ccc(CC(NC(=O)CCc2ccc(OC(=O)CCCC(*)=O)cc2)C(=O)OCCCCCC)cc1 (repeat unit)
  glass transition temperature: 43.00 °C

## *Oc1ccc(CC(NC(=O)CCc2ccc(OC(=O)CCCCC(*)=O)cc2)C(=O)OC(C)CC)cc1 (repeat unit)
  glass transition temperature: 50.00 °C

## *Oc1ccc(CC(NC(=O)CCc2ccc(OC(=O)CCCCC(*)=O)cc2)C(=O)OCC(C)C)cc1 (repeat unit)
  glass transition temperature: 56.00 °C

## *Oc1ccc(CC(NC(=O)CCc2ccc(OC(=O)CCCCC(*)=O)cc2)C(=O)OCC)cc1 (repeat unit)
  glass transition temperature: 61.00 °C

## *Oc1ccc(CC(NC(=O)CCc2ccc(OC(=O)CCCCCCC(*)=O)cc2)C(=O)OCC(C)C)cc1 (repeat unit)
  glass transition temperature: 42.00 °C

## *Oc1ccc(CC(NC(=O)CCc2ccc(OC(=O)CCCCCCCCC(*)=O)cc2)C(=O)OCC(C)C)cc1 (repeat unit)
  glass transition temperature: 33.00 °C

## *Oc1ccc(CC(NC(=O)CCc2ccc(OC(=O)CCCCCCCCC(*)=O)cc2)C(=O)OCCCCCCCC)cc1 (repeat unit)
  glass transition temperature: 15.50 °C

## *Oc1ccc(CC(NC(=O)CCc2ccc(OC(=O)COCC(*)=O)cc2)C(=O)OC(C)C)cc1 (repeat unit)
  glass transition temperature: 80.00 °C

## *Oc1ccc(CC(NC(=O)CCc2ccc(OC(=O)COCC(*)=O)cc2)C(=O)OC(C)CC)cc1 (repeat unit)
  glass transition temperature: 68.00 °C

## *Oc1ccc(CC(NC(=O)CCc2ccc(OC(=O)COCC(*)=O)cc2)C(=O)OCC)cc1 (repeat unit)
  glass transition temperature: 79.00 °C

## *Oc1ccc(CC(NC(=O)CCc2ccc(OC(=O)COCC(*)=O)cc2)C(=O)OCCCCCCCCCCCC)cc1 (repeat unit)
  glass transition temperature: 36.00 °C

## *Oc1ccc(CC(NC(=O)Cc2ccc(OC(=O)CC(C)CCC(*)=O)cc2)C(=O)OCCCCCCCC)cc1 (repeat unit)
  glass transition temperature: 30.00 °C

## *Oc1ccc(CC(NC(=O)Cc2ccc(OC(=O)CCC(*)=O)cc2)C(=O)OCCCCCCCC)cc1 (repeat unit)
  glass transition temperature: 51.00 °C

## *Oc1ccc(CC(NC(=O)Cc2ccc(OC(=O)CCCC(*)=O)cc2)C(=O)OCCCCCCCC)cc1 (repeat unit)
  glass transition temperature: 38.00 °C

## *Oc1ccc(CC(NC(=O)Cc2ccc(OC(=O)CCCCCCC(*)=O)cc2)C(=O)OCC)cc1 (repeat unit)
  glass transition temperature: 54.00 °C

## *Oc1ccc(CC(NC(=O)Cc2ccc(OC(=O)CCCCCCC(*)=O)cc2)C(=O)OCCCCCCCC)cc1 (repeat unit)
  glass transition temperature: 22.00 °C

## *Oc1ccc(CC(NC(=O)Cc2ccc(OC(=O)COCCOCC(*)=O)cc2)C(=O)OCC)cc1 (repeat unit)
  glass transition temperature: 50.00 °C

## *Oc1ccc(CC(NC(=O)Cc2ccc(OC(=O)COCCOCC(*)=O)cc2)C(=O)OCCCCCC)cc1 (repeat unit)
  glass transition temperature: 31.00 °C

## *Oc1ccc(S(=O)(=O)c2ccc(Oc3c(C)cc(Cc4cc(C)c(*)c(C)c4)cc3C)cc2)cc1 (repeat unit)
  glass transition temperature: 232.00 °C

## *c1c(C)cc(-c2cc(C)c(N3C(=O)c4cccc(Oc5c(C)cc(Cc6cc(C)c(Oc7cccc8c7C(=O)N(*)C8=O)c(C)c6)cc5C)c4C3=O)c(C)c2)cc1C (repeat unit)
  glass transition temperature: 276.00 °C

## *c1c(C)cc(Cc2cc(C)c(N3C(=O)c4ccc(Oc5ccc(C(C)(C)c6ccc(Oc7ccc8c(c7)C(=O)N(*)C8=O)cc6)cc5)cc4C3=O)c(C)c2)cc1C (repeat unit)
  glass transition temperature: 247.00 °C

## *c1c(C)cc(Cc2cc(C)c(N3C(=O)c4cccc(Oc5c(C)cc(Cc6cc(C)c(Oc7cccc8c7C(=O)N(*)C8=O)c(C)c6)cc5C)c4C3=O)c(C)c2)cc1C (repeat unit)
  glass transition temperature: 243.00 °C

## *c1c(C)cc(Cc2cc(C)c(N3C(=O)c4cccc(Oc5ccc(C(C)(C)c6ccc(Oc7cccc8c7C(=O)N(*)C8=O)cc6)cc5)c4C3=O)c(C)c2)cc1C (repeat unit)
  glass transition temperature: 223.00 °C

## *c1ccc(CC(=O)Nc2ccc(Oc3ccc(NC(=O)Cc4ccc(-c5sc(*)c(-c6ccccc6)c5-c5ccccc5)cc4)cc3)cc2)cc1 (repeat unit)
  glass transition temperature: 226.00 °C

## *c1ccc(CC(=O)Nc2cccc3c(NC(=O)Cc4ccc(-c5sc(*)c(-c6ccccc6)c5-c5ccccc5)cc4)cccc23)cc1 (repeat unit)
  glass transition temperature: 255.00 °C

## *c1ccc(Cc2ccc(N3C(=O)c4ccc(-c5ccc6c(c5)C(=O)N(*)C6=O)cc4C3=O)c(C(C)(C)C)c2)cc1C(C)(C)C (repeat unit)
  glass transition temperature: 324.00 °C

## *c1ccc(Cc2ccc(N3C(=O)c4cccc5c(N6CCC(CCCC7CCN(c8ccc9c%10c(cccc8%10)C(=O)N(*)C9=O)CC7)CC6)ccc(c45)C3=O)c(C(C)(C)C)c2)cc1C(C)(C)C (repeat unit)
  glass transition temperature: 202.70 °C

## *c1ccc(NC(=O)Cc2ccc(-c3sc(-c4ccc(CC(=O)Nc5ccc(-c6sc(*)c(-c7ccccc7)c6-c6ccccc6)cc5)cc4)c(-c4ccccc4)c3-c3ccccc3)cc2)cc1 (repeat unit)
  glass transition temperature: 273.00 °C

## *c1ccc(Oc2ccc(-c3ccc(Oc4ccc(N5C(=O)c6cccc(Oc7c(C)cc(Cc8cc(C)c(Oc9cccc%10c9C(=O)N(*)C%10=O)c(C)c8)cc7C)c6C5=O)cc4)cc3)cc2)cc1 (repeat unit)
  glass transition temperature: 259.00 °C

## *c1ccc(Oc2ccc(N3C(=O)c4ccc(Oc5c(C)cc(Cc6cc(C)c(Oc7ccc8c(c7)C(=O)N(*)C8=O)c(C)c6)cc5C)cc4C3=O)cc2)cc1 (repeat unit)
  glass transition temperature: 266.00 °C

## *c1ccc2c(c1)C(=O)N(c1ccc(Oc3c(C)cc(Cc4cc(C)c(Oc5ccc(N6C(=O)c7ccc(C(*)(C(F)(F)F)C(F)(F)F)cc7C6=O)cc5)c(C)c4)cc3C)cc1)C2=O (repeat unit)
  glass transition temperature: 298.00 °C

## *c1cccc(N2C(=O)c3ccc(Oc4c(C)cc(Cc5cc(C)c(Oc6ccc7c(c6)C(=O)N(*)C7=O)c(C)c5)cc4C)cc3C2=O)c1 (repeat unit)
  glass transition temperature: 245.00 °C
